Each molecule was assayed against T1, BRD4 (BD1) (Homo sapiens, UniProt O60885) (assay: Binding assay BRD4/acetylated peptide H4 (TR-FRET protein-protein interaction assay)). Settings: not given.
T1 construct: with relatively long constructs also being possible, preferably amino acids 44-168; made in house; host or cells: E. coli
Text: Binding Assay BRD4/Acetylated Peptide H4 (“PRO”)
To assess the BRD4 binding of the substances described in the present application, their ability to inhibit the interaction between BRD4 (BD1) and acetylated histone H4 in a dose-dependent manner was quantified (Filippakopoulos et al., Cell, 2012, 149: 214-231).
For this purpose, use was made of a time-resolved fluorescence resonance energy transfer (TR-FRET) assay which measured binding between N-terminally His6-tagged BRD4 (BD1) (amino acids 67-152, with relatively long constructs also being possible, preferably amino acids 44-168) and a synthetic acetylated histone H4 (Ac—H4) peptide having the sequence GRGK(Ac)GGK(Ac)GLGK(Ac)GGAK(Ac)RHGSGSK-biotin. The recombinant BRD4 protein-produced according to Filippakopoulos et al., Cell, 2012, 149: 214-231—was expressed in E. coli and purified by (Ni-NTA) affinity and (Sephadex G-75) size exclusion chromatography. The Ac—H4 peptide is commercially available, for example from Biosyntan (Berlin, Germany). In a typical assay, 11 different concentrations of each substance (0.1 nM, 0.33 nM, 1.1 nM, 3.8 nM, 13 nM, 44 nM, 0.15 μM, 0.51 μM, 1.7 μM, 5.9 μM and 20 μM) were measured in duplicate on the same microtitre plate. To this end, 100-fold concentrated solutions in DMSO were prepared by serial dilution (1:3.4) of a 2 mM stock solution in a clear 384-well microtitre platte (Greiner Bio-One, Frickenhausen, Germany) 50 nl of these were transferred into a black test plate (Greiner Bio-One, Frickenhausen, Germany). The test was started by addition of 2 μl of a 2.5-fold concentrated BRD4 solution (final concentration usually 10 nM in the […] of the reaction volume) in aqueous assay buffer [50 mM HEPES pH 7.5. 50 mM sodium chloride (NaCl), 0.25 mM CHAPS and 0.05% serum albumin (BSA)] to the substances in the test plate. This was followed by a 10-minute incubation step at 22° C. to pre-equilibrate putative complexes between BRD4 and the substances.
The mixture was then incubated in the dark for one hour at 22° C. and then for at least 3 hours and at most overnight at 4° C. Formation of BRD4/Ac—H4 complexes was determined by measuring the resonance energy transfer from the streptavidin-Eu cryptate to the anti-6His-XL665 antibody in the reaction. To this end, the fluorescence emission was measured at 620 nm and 665 nm after excitation at 330-350 nm in a TR-FRET measuring device, for example a Rubystar or Pherastar (both from BMG Lab Technologies, Offenburg, Germany) or a Viewlux (Perkin-Elmer). The ratio of the emission at 665 nm and at […] was used as an indicator for the amount of BRD4/Ac—H4 complexes formed.
The data obtained (ratios) were normalized, with 0% inhibition corresponding to the mean of the measured values of a set of controls (usually 32 data points) comprising all reagents. Here, 50 nl of DMSO (100%) were used instead of test substances. An inhibition of 100% corresponded to the mean of the measured values of a set of controls (usually 32 data points) comprising all reagents except for BRD4. The IC50 was determined by regression analysis based on a 4-parameter equation (minimum, maximum, IC50, Hill; Y=Max+(Min−Max)/(1+(X/IC 50)^Hill)).

SMILES | IC50
CNC(=O)N1N=C(c2ccc(F)c(-c3c(C)nn(C)c3C)c2)c2cc(OC)c(OC)cc2CC1C (racemic) [Example 56, (±)-1-[4-fluoro-3-(1,3,5-trimethyl-1H-pyrazol-4-yl)phenyl]-7,8-dimethoxy-N,4-dimethyl-4,5-dihydro-3H-2,3-benzodiazepine-3-carboxamide] | 180 nM
CNC(=O)N1N=C(c2ccc(-c3c(C)noc3C)cc2)c2cc(C)ccc2CC1C (racemic) [Example 158, (±)-1-[4-(3,5-dimethylisoxazol-4-yl)phenyl]-N,4,8-trimethyl-4,5-dihydro-3H-2,3-benzodiazepine-3-carboxamide] | 60 nM
CNC(=O)N1N=C(c2ccc(N3CCC(O)CC3)cc2)c2cc(OC(F)(F)F)ccc2CC1C (racemic) [Example 251, (±)-1-[4-(4-hydroxy-1-piperidinyl)phenyl]-N,4-dimethyl-8-(trifluoromethoxy)-4,5-dihydro-3H-2,3-benzodiazepine-3-carboxamide] | 30 nM
CNC(=O)N1N=C(c2ccc(-c3ccc(C(F)(F)F)nc3)cc2)c2cc(OC)c(OC)cc2C[C@H]1C [Example 50.2, (4R)-7,8-dimethoxy-N,4-dimethyl-1-{4-[6-(trifluoromethyl)pyridin-3-yl]phenyl}-4,5-dihydro-3H-2,3-benzodiazepine-3-carboxamide] | 18900 nM
CCC1Cc2cc(OC)c(OC)cc2C(c2ccc(N3CCCC3=O)cc2)=NN1C(=O)NC (racemic) [Example 225, (±)-4-ethyl-7,8-dimethoxy-N-methyl-1-[4-(2-oxopyrrolidin-1-yl)phenyl]-4,5-dihydro-3H-2,3-benzodiazepine-3-carboxamide] | 1720 nM
CCC1Cc2cc(OC)c(OC)cc2C(c2ccc(-c3c(C)noc3C)cc2)=NN1C(=O)NC (racemic) [Example 223, (±)-1-[4-(3,5-dimethyl-1,2-oxazol-4-yl)phenyl]-4-ethyl-7,8-dimethoxy-N-methyl-4,5-dihydro-3H-2,3-benzodiazepine-3-carboxamide] | 320 nM
CCC(=O)N1N=C(c2ccc(N3CCN(C)CC3)cc2)c2cc(OC)c(OC)cc2CC1C (racemic) [Example 255, (±)-7,8-dimethoxy-4-methyl-1-[4-(4-methylpiperazin-1-yl)phenyl]-3-(1-oxopropyl)-4,5-dihydro-3H-2,3-benzodiazepine] | 240 nM
CNC(=O)N1N=C(c2ccc(Cl)cc2)c2ccc(-c3ccc(O)nc3)cc2CC1C (racemic) [Example 241, (±)-1-(4-chlorophenyl)-7-(6-hydroxypyridin-3-yl)-N,4-dimethyl-4,5-dihydro-3H-2,3-benzodiazepine-3-carboxamide] | 2560 nM
CNC(=O)N1N=C(c2ccc(N3CCN(C)C(=O)C3)cc2)c2ccc(N3CCN(C)C(=O)C3)cc2CC1C (racemic) [Example 238, (±)-N,4-dimethyl-7-(4-methyl-3-oxopiperazin-1-yl)-1-[4-(4-methyl-3-oxopiperazin-1-yl)phenyl]-4,5-dihydro-3H-2,3-benzodiazepine-3-carboxamide] | 130 nM
CCC1Cc2cc(OC)c(OC)cc2C(c2ccc(N3CC(F)C3)cc2)=NN1C(=O)NC (racemic) [Example 204, (±)-4-ethyl-1-[4-(3-fluoroazetidin-1-yl)phenyl]-7,8-dimethoxy-N-methyl-4,5-dihydro-3H-2,3-benzodiazepine-3-carboxamide] | 1220 nM
CNC(=O)N1N=C(c2ccc(N3CCCS3(=O)=O)cc2)c2cc(OC)c(OC)cc2CC1C (racemic) [Example 244, (±)-1-[4-(1,1-Dioxido-1,2-thiazolidin-2-yl)phenyl]-7,8-dimethoxy-N,4-dimethyl-4,5-dihydro-3H-2,3-benzodiazepine-3-carboxamide] | 30 nM
COC(=O)N1N=C(c2ccc(N3CCN(C)CC3)cc2)c2cc(OC)c(OC)cc2CC1C (racemic) [Example 259, Methyl(±)-7,8-dimethoxy-4-methyl-1-[4-(4-methylpiperazin-1-yl)phenyl]-4,5-dihydro-3H-2,3-benzodiazepine-3-carboxylate] | 520 nM
CNC(=O)N1N=C(c2ccc(N3CCC(=O)CC3)cc2)c2cc(OC)c(OC)cc2CC1C (racemic) [Example 196, (±)-7,8-dimethoxy-N,4-dimethyl-1-[4-(4-oxopiperidin-1-yl)phenyl]-4,5-dihydro-3H-2,3-benzodiazepine-3-carboxamide] | 90 nM
CNC(=O)N1N=C(c2ccc(Cl)cc2)c2ccc(-c3c(C)noc3C)cc2CC1C (racemic) [Example 242, (±)-1-(4-chlorophenyl)-7-(3,5-dimethyl-1,2-oxazol-4-yl)-N,4-dimethyl-4,5-dihydro-3H-2,3-benzodiazepine-3-carboxamide] | 2690 nM
CNC(=O)N1N=C(c2ccc(N3CCN(C)CC3)cc2)c2ccc(N3CCN(C)CC3)cc2CC1C (racemic) [Example 237, (±)-N,4-dimethyl-7-(4-methylpiperazin-1-yl)-1-[4-(4-methylpiperazin-1-yl)phenyl]-4,5-dihydro-3H-2,3-benzodiazepine-3-carboxamide] | 1070 nM

More lines, now with the values ahead:

IC50 | SMILES
270 nM | CNC(=O)N1N=C(c2ccc(N3CCC(C)(O)CC3)cc2)c2cc(OC)c(OC)cc2C[C@H]1C [Example 188.1, (4R)-1-[4-(4-hydroxy-4-methylpiperidin-1-yl)phenyl]-7,8-dimethoxy-N,4-dimethyl-4,5-dihydro-3H-2,3-benzodiazepine-3-carboxamide]
11200 nM | CC[C@@H]1Cc2cc(OC)c(OC)cc2C(c2ccc(N3CCN(S(C)(=O)=O)CC3)cc2)=NN1C(=O)NC [Example 203.2, (4R)-4-ethyl-7,8-dimethoxy-N-methyl-1-{4-[4-(methylsulphonyl)piperazin-1-yl]phenyl}-4,5-dihydro-3H-2,3-benzodiazepine-3-carboxamide]
6540 nM | CC[C@@H]1Cc2cc(OC)c(OC)cc2C(c2ccc(N3CCNCC3)cc2)=NN1C(=O)NC [Example 202.2, (4R)-4-ethyl-7,8-dimethoxy-N-methyl-1-[4-(piperazin-1-yl)phenyl]-4,5-dihydro-3H-2,3-benzodiazepine-3-carboxamide]
> 20000 nM | CNC(=O)N1N=C(c2ccc(Cl)cc2)c2cc(OCCCN3CCN(C)CC3)ccc2C[C@H]1C [Example 164.1, (4R)-1-(4-chlorophenyl)-N,4-dimethyl-8-[3-(4-methylpiperazin-1-yl)propoxy]-4,5-dihydro-3H-2,3-benzodiazepine-3-carboxamide]
1220 nM | CCNC(=O)N1N=C(c2ccc(N3CCN(C)CC3)cc2)c2cc(OC)c(OC)cc2C[C@@H]1C [Example 261.1, (4S)—N-Ethyl-7,8-dimethoxy-4-methyl-1-[4-(4-methylpiperazin-1-yl)phenyl]-4,5-dihydro-3H-2,3-benzodiazepine-3-carboxamide]

Each molecule was assayed on MOLM-13 cells (assay: Cell proliferation assay (alamarBlue), MOLM-13). Settings: Homo sapiens, 96 hours incubation, inhibition of cell proliferation.
Type: cell-based
Procedure: In accordance with the invention, the capability of the substances to inhibit cell proliferation was determined Cell viability was determined using the alamarBlue® reagent (Invitrogen) in a Victor X3 Multilabel Reader (Perkin Elmer). The excitation wavelength was 530 nm and the emission wavelenth […].
The MOLM-13 cells (DSMZ, ACC 554) were sown at a concentration of 4000 cells/well in 100 μl growth medium (RPMI1640, 10% FCS) on 96-well microtitre plates.
After an overnight incubation at 37° C., the fluorescence values (CI values) were determined. The plates were then treated with various substance dilutions (1E-5 M, 3E-6 M, 1E-6M, 3E-7 M, 1E-7 M, 3E-8 M, 1E-8 M) and incubated at 37° C. for 72 (MV4-11-, LOX-IMVI cells), 96 (MOLM-13-, B16F10-, MDA-MB-431-, Caov-3 cells), 120 (MOLP-8-, KMS-12-PE cells) or 168 (LAPC-4 cells) hours. The fluorescence values (CO values) were then determined. For the data analysis, the CI values were subtracted from the CO values and the results were compared between cells treated with different dilutions of the substance or with buffer solution only. These were used to calculate the IC 50 values (substance concentration required for 50% inhibition of cell proliferation).

IC50 | SMILES
900 nM | CNC(=O)N1N=C(c2ccc(F)c(-c3c(C)nn(C)c3C)c2)c2cc(OC)c(OC)cc2CC1C (racemic) [Example 56, (±)-1-[4-fluoro-3-(1,3,5-trimethyl-1H-pyrazol-4-yl)phenyl]-7,8-dimethoxy-N,4-dimethyl-4,5-dihydro-3H-2,3-benzodiazepine-3-carboxamide]
430 nM | CNC(=O)N1N=C(c2ccc(-c3c(C)noc3C)cc2)c2cc(C)ccc2CC1C (racemic) [Example 158, (±)-1-[4-(3,5-dimethylisoxazol-4-yl)phenyl]-N,4,8-trimethyl-4,5-dihydro-3H-2,3-benzodiazepine-3-carboxamide]
1130 nM | CNC(=O)N1N=C(c2ccc(N3CCC(C)(O)CC3)cc2)c2cc(OC)c(OC)cc2C[C@H]1C [Example 188.1, (4R)-1-[4-(4-hydroxy-4-methylpiperidin-1-yl)phenyl]-7,8-dimethoxy-N,4-dimethyl-4,5-dihydro-3H-2,3-benzodiazepine-3-carboxamide]
100 nM | CNC(=O)N1N=C(c2ccc(N3CCC(O)CC3)cc2)c2cc(OC(F)(F)F)ccc2CC1C (racemic) [Example 251, (±)-1-[4-(4-hydroxy-1-piperidinyl)phenyl]-N,4-dimethyl-8-(trifluoromethoxy)-4,5-dihydro-3H-2,3-benzodiazepine-3-carboxamide]
